pIC50: −log10 of the molar value.
Experiments:
[1] = target: T1, Tissue factor (Homo sapiens, UniProt P13726); test: Inhibition of TNF-alpha-induced tissue factor activity in HUVEC preincubated for 4 hrs assessed after 4 hrs of TNFalpha challenge by one stage clotting assay
[2] = target: T1, Tissue factor; test: Inhibition of LPS-induced tissue factor activity in HUVEC preincubated for 4 hrs assessed after 4 hrs of LPS challenge by one stage clotting assay

T1 sequence (P13726 whole entry): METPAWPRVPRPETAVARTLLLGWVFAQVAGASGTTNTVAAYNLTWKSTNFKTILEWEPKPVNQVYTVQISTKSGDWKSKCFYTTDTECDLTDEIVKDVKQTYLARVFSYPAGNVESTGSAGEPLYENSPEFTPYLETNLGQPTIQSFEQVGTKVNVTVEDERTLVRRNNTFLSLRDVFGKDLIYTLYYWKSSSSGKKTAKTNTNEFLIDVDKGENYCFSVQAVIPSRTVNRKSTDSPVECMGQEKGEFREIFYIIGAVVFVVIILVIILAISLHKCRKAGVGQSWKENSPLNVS

With `CC(=CC(C)C=CC(=O)NO)C(=O)c1ccc(N(C)C)cc1` (centres undefined) as the compound, how does the pIC50 [1] read?
The pIC50 was 7.52.

With `CCCC(=O)O` as the compound, how does the pIC50 [1] read?
The pIC50 was 2.70.

What about the pIC50 [2] of the same compound?
Its pIC50 is 3.00.

`Nc1ccccc1NC(=O)c1ccc(CNC(=O)OCc2cccnc2)cc1` [benzamide-type inhibitor, 3] was tested. Which pIC50 [1] did it give?
Its pIC50 is 5.00.

What about the pIC50 [2] of the same compound?
Its pIC50 is 5.22.

How did the pIC50 [1] turn out when `CCC(=O)CCCCC[C@@H]1NC(=O)[C@H]2CCCCN2C(=O)[C@H]([C@@H](C)CC)NC(=O)[C@H](Cc2cn(OC)c3ccccc23)NC1=O` [(6S,9S,12S,14aR)-6-((S)-sec-Butyl)-9-(1-methoxy-1H-indol-3-ylmethyl)-12-(6-oxo-octyl)-decahydro-4a,7,10,13-tetraaza-benzocyclododecene-5,8,11,14-tetraone] was run?
The pIC50 was 6.70.

And the pIC50 [2]?
Its pIC50 is 6.82.

What does the source list for `CCCC(CCC)C(=O)O` [Valproinsaeure]?
pIC50 [1]: 2.70; pIC50 [2]: 2.82
